Source: patent US20180369087A1, “Hydrogen Peroxide Booster System for Enhanced Teeth Whitening” (Colgate-Palmolive Company, priority 2015, published 2018)

Test: SNOBS stability in anhydrous formulation, HPLC
Type: physicochemical
Conditions: for % SNOBS: composition of Table 5
Protocol: The composition of Table 5 was aged at 40° C. and at room temperature for 8 weeks and 13 weeks respectively. The percentage of SNOBS remaining was quantified by HPLC. The results in Table 6 indicate that there is sufficient SNOBS remaining in the composition after aging at both room temperature and at 40° C. to be efficacious as a booster for the peroxide component in a tooth whitening composition.

- % Loss of SNOBS (4 weeks/40° C.): 3.1%
- % SNOBS (4 weeks/40° C.): 9.36%
- % Loss of SNOBS (8 weeks/40° C.): 6.4%
- % SNOBS (8 weeks/40° C.): 8.99%
- % Loss of SNOBS (13 weeks/Room Temperature (RT)): 4.06%
- % SNOBS (13 weeks/Room Temperature (RT)): 9.21%
- % SNOBS (Initial): 9.6%
SMILES: CCCCCCCCC(=O)Oc1ccc(S(=O)(=O)[O-])cc1.[Na+] [SNOBS, sodium nonanoyloxybenzenesulfonate]
